This is an account of results in article PMC4417173 (2015).

Assay [1] concerns 5'-T8iG4T isoguanine quadruplex, (T8iG4T)4 (DNA, other, 2'-deoxyisoguanine at 9, 10, 11, 12 (written as G)) TTTTTTTTGGGGT
The assay can be described thus: UV-vis titration, Soret band. Conditions: 20 mM KCl; 40 mM Tris-HCl pH 8.0, 1% DMF, 0.05% Triton X-100, 25 °C; highest DNA tested 70 μM.

Assay [2] concerns 5'-T8G4T G-quadruplex, (T8G4T)4 (DNA, G4) TTTTTTTTGGGGT
The assay can be described thus: UV-vis titration, Soret band 404 nm. The note with it: 40 mM Tris-HCl pH 8.0, 1% DMF, 0.05% Triton X-100, 25 °C, 0.5 μM heme.

Assay [3] deals with 5'-T8iG4T isoguanine pentaplex, (T8iG4T)5 (DNA, other, 2'-deoxyisoguanine at 9, 10, 11, 12 (written as G)) TTTTTTTTGGGGT
The assay can be described thus: UV-vis titration, Soret band 404 nm. The note with it: 20 mM NaCl; 40 mM Tris-HCl pH 8.0, 1% DMF, 0.05% Triton X-100, 25 °C; 0.5 μM heme.

In the case of `C=CC1=C(C)C2=Cc3c(C=C)c(C)c4[n]3[Fe]([Cl])[n]3c(c(C)c(CCC(=O)O)c3=CC3=NC(=C4)C(C)=C3CCC(=O)O)=CC1=N2`, in assay [1], the binding result was “no”. The values for the Kd in assay [2] (20 mM KCl), in assay [2] (20 mM NaCl) and in assay [3] were 7.89 ± 0.96 µM, 3.22 ± 0.43 µM and 1.28 ± 0.05 µM, respectively.
